According to US11813306B2, “Cyclic tetramer compounds as proprotein convertase subtilisin/kexin type 9 (PCSK9) inhibitors for the treatment of metabolic disorders” (NOVARTIS AG, priority 2018, dated 2023):

Molecular target: human PCSK9 (Homo sapiens, UniProt Q8NBP7)
Assay: PCSK9 ligand binding assay (TR-FRET): interference with binding of human PCSK9 to human LDLR
Conditions: for IC50: Human PCSK9 Alexa Fluor 647 / Human LDLR extracellular domain-Europium Kryptate; for Max % inhibition: efficacy (Amax), 100% = 1 uM unlabeled human PCSK9, 0% = DMSO
In short: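 Read-out was TR-FRET ratio (665 nm over 615 nm, 330 nm excitation) between Alexa Fluor 647-human PCSK9 (16 nM added) and Europium Kryptate-human LDLR ectodomain (4 nM added). Compound and PCSK9 were mixed 30 min before LDLR, then incubated 2 h. Inhibition was normalised to DMSO and unlabelled-PCSK9 controls, giving IC50 and Amax.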

Sequence of human PCSK9 (Q8NBP7 153-692): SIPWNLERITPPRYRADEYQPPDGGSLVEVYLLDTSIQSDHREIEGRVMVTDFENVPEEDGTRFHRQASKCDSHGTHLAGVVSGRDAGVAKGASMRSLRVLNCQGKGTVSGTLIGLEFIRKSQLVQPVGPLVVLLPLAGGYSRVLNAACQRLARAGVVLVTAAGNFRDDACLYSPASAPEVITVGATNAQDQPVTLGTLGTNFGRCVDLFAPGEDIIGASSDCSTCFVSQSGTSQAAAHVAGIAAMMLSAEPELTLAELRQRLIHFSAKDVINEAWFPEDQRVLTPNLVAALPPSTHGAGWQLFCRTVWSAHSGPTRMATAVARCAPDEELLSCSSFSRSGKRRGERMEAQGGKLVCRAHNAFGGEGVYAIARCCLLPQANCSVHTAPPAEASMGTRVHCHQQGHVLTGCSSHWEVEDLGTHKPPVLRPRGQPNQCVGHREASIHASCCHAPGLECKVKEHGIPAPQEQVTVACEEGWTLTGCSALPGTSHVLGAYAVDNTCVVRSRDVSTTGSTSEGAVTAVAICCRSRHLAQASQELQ
Sequence of human PCSK9 (Q8NBP7 31-152 partner limits assumed): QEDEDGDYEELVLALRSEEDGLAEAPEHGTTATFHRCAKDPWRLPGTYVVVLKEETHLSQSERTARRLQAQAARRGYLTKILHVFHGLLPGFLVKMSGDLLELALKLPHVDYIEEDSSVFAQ

| IC50 | Max % inhibition | SMILES |
| --- | --- | --- |
| 0.58 nM | 111.7% | C[C@H]1C(=O)N[C@@H](CO)C(=O)N[C@@]2(Cc3ccc(Cl)cc3)CCCN(C2)C(=O)[C@H](Cc2ccccc2)CC(=O)N1Cc1c(F)cc(Cl)cc1Oc1ccc(-c2cnc(CN(C)C)n2C)cc1F [Compound 87, (3R, 7S, 10S, 13R)-3-benzyl-6-(4-chloro-2-(4-(2-((dimethylamino)methyl)-1-methyl-1H-imidazol-5-yl)-2-fluorophenoxy)-6-fluorobenzyl)-13-(4-chlorobenzyl)-10-(hydroxymethyl)-7-methyl-1,6,9,12-tetraazabicyclo[11.3.1]heptadecane-2,5,8,11-tetraone] |
| 76.3 nM | 86.3% | COC[C@@H]1NC(=O)[C@@H](C)N(Cc2c(F)cc(Cl)cc2Oc2ccc(-c3cnc(CN(C)C)n3C)nc2)C(=O)C[C@@H](CC(F)(F)F)C(=O)N2CCC[C@@](Cc3ccc(Cl)cc3)(C2)N(C)C1=O [Compound 176, (3S, 7R, 10S, 13R)-6-(4-chloro-2-((6-(2-((dimethylamino)methyl)-1-methyl-1H-imidazol-5-yl)pyridin-3-yl)oxy)-6-fluorobenzyl)-13-(4-chlorobenzyl)-10-(methoxymethyl)-7,12-dimethyl-3-(2,2,2-trifluoroethyl)-1,6,9,12-tetraazabicyclo[11.3.1]heptadecane-2,5,8,11-tetraone] |
| 346 nM | 84.4% | C[C@H]1C(=O)N[C@@H](CO)C(=O)N[C@@]2(Cc3ccc(Cl)cc3)CCCN(C2)C(=O)[C@H]([C@@H]2CCc3ccccc32)CC(=O)N1Cc1ccc(Oc2ccc(-c3cnc(CN(C)C)n3C)cc2)cc1F [Compound 123] |
| 1.05 nM | 113.0% | COC[C@@H]1NC(=O)[C@H](C)N(Cc2ccc(Cl)cc2Oc2ccc(-c3cnc(CN4CCC4)n3C)cc2)C(=O)C[C@@H](CC(F)(F)F)C(=O)N2CCC[C@@](Cc3ccc(Cl)cc3)(C2)NC1=O [Compound 33, (3S,7S,10S,13R)-6-(2-(4-(2-(Azetidin-1-ylmethyl)-1-methyl-1H-imidazol-5-yl)phenoxy)-4-chlorobenzyl)-13-(4-chlorobenzyl)-10-(methoxymethyl)-7-methyl-3-(2,2,2-trifluoroethyl)-1,6,9,12-tetraazabicyclo[11.3.1]heptadecane-2,5,8,11-tetraone] |
| 0.405 nM | 110.0% | C[C@H]1C(=O)N[C@@H](CO)C(=O)N[C@@]2(Cc3ccc(Cl)cc3)CCCN(C2)C(=O)[C@H](Cc2ccccc2)CC(=O)N1Cc1ccc(Cl)cc1Oc1ccc(-c2cnc(CN(C)C)n2C)c(F)c1 [Compound 43, (3R, 7S, 10S, 13R)-3-benzyl-6-(4-chloro-2-(4-(2-((dimethylamino)methyl)-1-methyl-1H-imidazol-5-yl)-3-fluorophenoxy)benzyl)-13-(4-chlorobenzyl)-10-(hydroxymethyl)-7-methyl-1,6,9,12-tetraazabicyclo[11.3.1]heptadecane-2,5,8,11-tetraone] |
| 0.3 nM | 113.0% | COC[C@@H]1NC(=O)[C@H](C)N(Cc2c(F)cc(Cl)cc2Oc2ccc(-c3cnc(CN(C)C(C)(C)C)n3C)cc2)C(=O)C[C@@H](CC(F)(F)F)C(=O)N2CCC[C@@](Cc3ccc(Cl)cc3)(C2)NC1=O [Compound 137, (3S,7S,10S,13R)-6-(2-(4-(2-((tert-Butyl(methyl)amino)methyl)-1-methyl-1H-imidazol-5-yl)phenoxy)-4-chloro-6-fluorobenzyl)-13-(4-chlorobenzyl)-10-(methoxymethyl)-7-methyl-3-(2,2,2-trifluoroethyl)-1,6,9,12-tetraazabicyclo[11.3.1]heptadecane-2,5,8,11-tetraone] |
